Assay results published in patent US9994901B2, “Pro-inflammatory mediators in diagnosis and treatment of chronic obstructive pulmonary disease” (The Regents of the University of Colorado, priority 2012, dated 2018).

Experiments:
[1] = system: human PB monocytes; assay: Human PB monocytes cultured on fibronectin 48 hrs, conditioned media ELISA (FIG. 3); assay type: cell-based; settings: human PB monocytes (n=6) on fibronectin 48 hrs, PTA2 added; ELISA of conditioned media
Experimental: FIG. 3. […] Fibronectin (FN) induces pro-inflammatory mediator in human PB monocytes. Monocytes (n=6) were cultured on plastic (ctl) or fibronectin (FN) for 48 hrs. Pinane thromboxane A2 (PTA2), a thromboxane receptor antagonist, was added to some FN cultures. Conditioned media was analyzed for indicated mediators by ELISA. *P<0.05 Students two tailed t-test compared to plastic.
In particular, murine macrophages promote inflammation via a signaling pathway that depends on thromboxane receptor signaling and that is repressed by ARHGEF1. Monocytes from a healthy individual similarly promote inflammation, as indicated by MMP-9, TNFα and MCP-1 production, and this is inhibited by a (commercially available research grade) thromboxane receptor antagonist (FIG. 3).
To facilitate this analysis, we used an ELISA-based platform developed by Meso Scale Discovery (MSD), Gaithersburg, Md. USA (www.mesoscale.com) that allows a multiplex format for the analysis of pro-inflammatory cytokines, chemokines, and matrix metalloproteases. This platform relies on proprietary detection and patterned arrays in a 96-well format and that has an extremely large dynamic range enabling detection of these pro-inflammatory mediators from both biological samples (BAL fluid, serum, etc.) and tissue culture supernatant. An MSD plate reader (Sector Imager 2400) was used.

[2] = system: COPD patient monocytes; assay: COPD patient peripheral blood monocytes cultured on fibronectin, IL-8 production (FIG. 15); assay type: cell-based, human
Experimental: FIG. 15. […] Graphically depicted are the results from treating human monocytes cultured on fibronectin with two different TP antagonist. […] Some fibronectin cultured cells were treated with the thromboxane receptor antagonist Pinane Thromboxane (PTA2). For PTA2 treatment, the concentration utilized is 7.5 μM.
Some fibronectin cultured cells were treated with the thromboxane receptor antagonist Pinane Thromboxane (PTA2). For PTA2 treatment, the concentration used was 7.5 μM.

[3] = system: Arhgef1-/- animals; assay: Arhgef1-/- animals, inhalation of PTA2, BAL supernatant ELISA (FIG. 11); assay type: in vivo, mouse; settings: ELISA 24 hr after a 1 hr inhalation exposure, vs vehicle
Experimental: FIG. 11. Panels A and B graphically depict the measurement of BAL pro-inflammatory mediators by ELISA in Arhgef1 deficient animals treated by inhalation of PTA2 or vehicle. […] Pro-inflammatory mediators were measured in BAL supernatant 24 hr after a 1 hr inhalation exposure to either vehicle (black bars on left sides, n=16) or PTA2 (grey bars on right sides, n=3).
(§1) Treatment with a thromboxane receptor antagonist decreases the expression of pro-inflammatory mediators.

[4] = system: Arhgef1-/- mice; assay: Arhgef1-/- mice treated with TP antagonist, RT-PCR of BAL cells and lung tissue (FIGS. 9, 10); assay type: in vivo, mouse; settings: time course, single dose
Source text: Arhgef1 is an intracellular signaling molecule which has been shown specifically to modulate signaling from Gα12/13 coupled receptors. […] We have identified that thromboxane receptor signaling is required for fibronectin induced MMP-9 expression in wild type and Arhgef1-deficient cells. Treatment of Arhgef1-deficient mice with a thromboxane receptor antagonist results in a consistent and reproducible reduction in MMP-9 expression and activity in the pulmonary compartment. […] Importantly treatment with a thromboxane receptor antagonist decreased expression of all of these mediators in the Arhgef1-deficient lungs. These findings were unexpected.
as §1

[5] = system: human monocytes; assay: Human monocytes cultured on fibronectin, IL-6 by ELISA (FIG. 12); assay type: cell-based; settings: FN+20 mM aspirin vs FN
Source text: Experiments summarized in the top of FIG. 12 show culture of human monocytes on fibronectin (FN) induces several pro-inflammatory mediators as measured by ELISA.

## CCCCC[C@@H](O)/C=C/[C@H]1C[C@H]2C[C@@H]([C@@H]1C/C=C\CCCC(=O)O)C2(C)C (relative stereo) [PTA2, (1S-(1alpha,2beta(Z),3alpha(1E,3S*),5alpha))-7-(3-(3-Hydroxy-1-octenyl)-6,6-dimethylbicyclo(3.1.1)hept-2-yl)-5-heptenoic acid]
[1]
  FN induced MCP-1: dependent on TP signaling
  FN induced TNF-: dependent on TP signaling
[2]; monocytes from 3 COPD patients on fibronectin, PTA2 7.5 μM
  IL-8 production: reduce IL-8 production
[3]
  production of several pro-inflammatory mediators in BAL supernatant: reduces production of several pro-inflammatory mediators

## Cc1c(CC(C)(C)C(=O)O)n(Cc2ccc(Cl)cc2)c2ccc(F)cc12 [L655, 1-[(4-Chlorophenyl)methyl]-5-fluoro-α,α,3-trimethyl-1H-indole-2-propanoic acid]
[4]
  expression of several pro-inflammatory mediators, RT-PCR of BAL cells: decreases expression of several pro-inflammatory mediators
  expression of several pro-inflammatory mediators, RT-PCR of lung tissue: decreases expression of several pro-inflammatory mediators

## CC1=C(C)C(=O)C(C(CCCCCC(=O)O)c2ccccc2)=C(C)C1=O (centres unmarked) [Seratrodast, 7-phenyl-7-(2,4,5-trimethyl-3,6-dioxocyclohexa-1,4-dien-1-yl)heptanoic acid]
[2]; monocytes from a COPD patient on fibronectin, Seratrodast 0.448, 2.24, 11.2 μM
  IL-8 production: reduce IL-8 production

## CC(=O)Oc1ccccc1C(=O)O [aspirin]
[5]
  FN induced IL-6 production: reduced
